In publication PMC11009625, “Antibiotic class with potent in vivo activity targeting lipopolysaccharide synthesis in Gram-negative bacteria” (Proceedings of the National Academy of Sciences of the …, 2024):
Values after ≈ are worked out from the molar mass of the structure shown. Like-named read-outs stand apart in the source and are kept apart here.

How the values were obtained:
[1] = system: E. coli ATCC 25922; test: MIC (CLSI broth microdilution), wild-type E. coli; assay type: cell-based; details: Escherichia coli, ATCC25922
Experimental: (§1) Minimum inhibitory concentration (MIC) values were determined according to the Clinical Laboratory Standards Institute guidelines. Frequency of resistance was determined by plating ~5 × 10^8 bacterial cells on agar-solidified media plates containing test compound at concentrations corresponding to four times the measured solid-media MIC of the strains. Colonies were counted after 24 h, restreaked onto media containing the same concentration of compound, and the MIC remeasured against the assayed compound. Genomic DNA from isolated clones was sequenced by paired-end sequencing on an Illumina MiSeq device. Complete experimental details available in SI Appendix. […]
(§2) Minimum inhibitory concentration (MIC) determination. Broth microdilution and agar dilution
(§3) MIC assays were conducted according to CLSI guidelines (M07-2012). Appropriate inoculation
(§4) suspension density was assessed using a Sensititre Nephelometer with a Sensititre 0.5
McFarland Standard. […]

[2] = system: E. coli ATCC 25922 ΔtolC efflux mutant; test: MIC, E. coli efflux mutant; assay type: cell-based
Experimental: as §1, §2, §3

[3] = system: K. pneumoniae ATCC 13883; test: MIC, K. pneumoniae, with and without 50% human serum; assay type: cell-based
Experimental: as §1, §2, §3, §4
McFarland Standard. Serum MICs were conducted in 50% heat-inactivated pooled human

[4] = in vitro; assay type: cell-based
Experimental: Minimum inhibitory concentration (MIC) determination. Broth microdilution and agar dilution MIC assays were conducted according to CLSI guidelines (M07-2012). Appropriate inoculation suspension density was assessed using a Sensititre Nephelometer with a Sensititre 0.5 McFarland Standard. Serum MICs were conducted in 50% heat-inactivated pooled human serum (Sigma-Aldrich). Serum was heated to 56 °C for one hour and then filtered using a 0.2 µm […]
Strain construction. The efflux-defective P. mirabilis strain EN1490 was constructed using EZ-Tn5 <KAN-2> Transposome mutagenesis with TypeOne Restriction Inhibitor. Approximately 3000 independent clones were screened for increased susceptibility to chloramphenicol (8 mg/L), yielding 2 independent clones with insertions in the gene tolC. […]

[5] = system: HepG2 cells; test: HepG2 cytotoxicity (72 h); assay type: cell-based
Experimental: (§5) Thermodynamic solubility was assessed by dissolving 2 to 3 mg of test compound to equilibrium in 100 mM KPO4-buffer, pH 7.4. The metabolic stability assay was performed in the presence of human and mouse liver microsomes by measurement of test compounds disappearance over time (60 min). The plasma protein binding assay, including stability estimation, was performed using the RED devices (Thermo Fisher Scientific) in the presence of human and mouse plasma. All samples from the in vitro ADME studies were quantified by liquid chromatography-triple quadrupole mass spectrometry (LC–MS/MS). The assays were performed as previously described ([36]) and the details are available in SI Appendix. Cytotoxicity was assessed by incubation of test compounds in the presence of HepG2 cells for 72 h as previously described ([37]).

[6] = Plasma protein binding (RED device); assay type: in vitro ADME; details: plasma (50% plasma, 50% isotonic buffer), pH 7.4; human plasma
Experimental: as §5
Plasma protein binding and plasma stability in human and animal plasma. Pooled,
anonymized human plasma was provided by Uppsala Academic Hospital and was collected from
two donors (non-smoking) (citric acid). In brief, 0.2 ml of the plasma (50% plasma, 50% isotonic
buffer) test solution (typically 10 μM final compound concentration) was transferred to the
membrane tube in the RED insert (ThermoFisher Scientific). 0.35 ml isotonic phosphate buffer
pH 7.4 was added to the other side of the membrane. The 96-well base plate was then sealed
with an adhesive plastic film (Scotch Pad) to prevent evaporation. The sample was incubated
with rapid rotation (900 rpm) on a Kisker rotational incubator at 37°C for 4 h to achieve
equilibrium. A stability test of the test solution was prepared (to allow detection of drug
degradation), 100 μL of the plasma test solution (in a plastic vial or on a sealed plate) was
incubated at 37°C for 4 h (or as long as the dialysis time). The plasma test solution was frozen
directly after the administration to prevent any degradation. Prior to LC-MS/MS analysis the
plasma and buffer sample were treated with the addition of Methanol (1:3) containing Warfarin
as internal standard to precipitate proteins. The standard curve was created using the plasma
standard. The plate is then sealed, centrifuged and the supernatant is analysed by liquid
chromatography coupled to triple quadrupole mass spectrometry (LC-MS/MS). […]
Liquid chromatography coupled to triple quadrupole mass spectrometry (LC-MS/MS). The test
compounds were optimized on a Waters Acquity UPLC XEVO TQ-S micro system (Waters Corp.)
operating in multiple reaction monitoring (MRM) mode with positive or negative electrospray
ionization. Compounds were optimized by using the QuanOptimize software (Waters Corp.).
For chromatographic separation, a C18 BEH 1.7 µm column was used, with a general gradient of
1% to 90% of mobile phase B over a total running time of 2 min. Mobile phase A consisted of
5% acetonitrile and 0.1% formic acid in purified water, and mobile phase B of 0.1% formic acid
in 100% acetonitrile. The flow rate was set to 0.5 ml/min and 5 µL of the sample was injected.

[7] = ATCC 25922 (Table S4), read-out: MIC E. coli EN0001
[8] = read-out: MIC E. coli ATCC 25922 Wild-type
[9] = Klebsiella pneumoniae, ATCC13883, read-out: MIC K. pneumoniae ATCC 13883 Wild-type
[10] = Homo sapiens, HepG2, 72 h, read-out: HepG2 viability IC50, 72 h
[11] = Klebsiella pneumoniae, ATCC13883, read-out: MIC K. pneumoniae ATCC 13883 In 50% human serum

SMILES	MIC [1, 7] [µg/mL]	MIC [1, 8] [µg/mL]	MIC E. coli ATCC 25922 ΔtolC efflux mutant [2] [µg/mL]	MIC ([3]; Klebsiella pneumoniae, ATCC13883; read-out: MIC K. pneumoniae ATCC 13883 In 50% human serum) [µg/mL]	MIC ([3]; Klebsiella pneumoniae, ATCC13883; read-out: MIC K. pneumoniae ATCC 13883 Wild-type) [µg/mL]	hemolysis [4] [%]	IC50 ([5]; Homo sapiens, HepG2, 72 h, read-out: HepG2 viability IC50) [µM]	fraction unbound at 4 h, 10 µM [6]	MIC [3, 9] [µg/mL]	IC50 [5, 10] [µM]	MIC [3, 11] [µg/mL]	IC50 ([5]; read-out: HepG2 viability IC50, 72 h) [µM]
Cc1cc(C#N)nc(N2CCN(S(=O)(=O)c3ccc(NC(=O)c4cc(CNCCCN)ccc4N(C)S(C)(=O)=O)cc3)CC2)n1.Cl.Cl [EBL-3599]	2	2	≤0.125	0.25	1	0.06	55	0.02				
CC(=O)N1CCc2cc(S(=O)(=O)N3CCN(c4cccc(C(F)(F)F)c4)CC3)ccc21 [AZ1, reference compound]		> 64	2 (≈ 4.41 µM)			2.1			> 64	22.5		
Cc1cc(C#N)nc(N2CCN(S(=O)(=O)c3ccc(NC(=O)c4cc(CN5CC(CN)C5)ccc4N(C)S(C)(=O)=O)cc3)CC2)n1 [EBL-3647]	2 (≈ 2.99 µM)	2 (≈ 2.99 µM)	≤0.125			0.13		0.025	0.5 (≈ 0.749 µM)	54	0.25 (≈ 0.374 µM)	
CN(c1ccccc1C(=O)Nc1ccc(S(=O)(=O)N2CCCCC2)cc1)S(C)(=O)=O [JEDI-852]		> 64	4 (≈ 8.86 µM)			0.03			> 64	> 32		> 64
CN(c1ccc(CNCCN)cc1C(=O)Nc1ccc(S(=O)(=O)N2CCN(c3cc(Cl)cc(Cl)c3)CC2)cc1)S(C)(=O)=O [EBL-3025]		1 (≈ 1.49 µM)	≤0.125			1.98		0.001	0.5 (≈ 0.747 µM)	49	0.5 (≈ 0.747 µM)	
CN(c1ccccc1C(=O)Nc1ccc(S(=O)(=O)N2CCN(c3cccc(C(F)(F)F)c3)CC2)cc1)S(C)(=O)=O [JEDI-1444]		2 (≈ 3.35 µM)	≤0.125			0.02		0.001	2 (≈ 3.35 µM)	> 64	32 (≈ 53.6 µM)	
Cc1cc(C#N)nc(N2CCN(S(=O)(=O)c3ccc(NC(=O)c4ccccc4N(C)S(C)(=O)=O)cc3)CC2)n1 [EBL-3339]		1 (≈ 1.76 µM)	≤0.125			0.05		0.0054	0.5 (≈ 0.878 µM)	29	2 (≈ 3.51 µM)	
